Laboratory results as given in US20070117770A1, “Human ribosomal DNA (rDNA) and ribosomal RNA (rRNA) nucleic acids and uses thereof” (Cylene Pharmaceuticals, Inc., priority 2005, published 2007).

Assays:
Test in all cases: Protein kinase inhibition assay
Assay type in all cases: biochemical
[1] = molecular target: JAK2(h) (Homo sapiens, UniProt O60674); conditions: read-out: percent residual activity of JAK2(h)
Description: (§1) Certain compounds were tested for activity in protein kinase inhibition assays. All substrates were dissolved and diluted to working stocks in de-ionized water, apart from histone H1 (10× working stock in 20 mM MOPS pH 7.0), PDKtide (10× working stock in 50 mM Tris pH 7.0) ATF2 (which is typically stored at a 20× working stock in 50 mM Tris pH 7.5, 150 mM NaCl, 0.1 mM EGTA, 0.03% Brij-35, 50% glycerol, 1 mM benzamidine, 0.2 mM PMSF and 0.1% R-mercaptoethanol), KKLNRTLSFAEPG (SEQ ID NO:203) and RRRLSFAEPG (SEQ ID NO:204) (50 mM HEPES pH 7.4) and GGEEEEYFELVKKKK (SEQ ID NO:205) (20 mM MOPS pH 7.0). All kinases were pre-diluted to a 10× working concentration prior to addition into the assay. The composition of the dilution buffer for each kinase is detailed below.
In a final reaction volume of 25 μl, JAK2 (h) (5-10 mU) is incubated with 8 mM MOPS pH 7.0, 0.2 mM EDTA, 100 μM […] (SEQ ID NO:217), 10 mM MgAcetate and [gamma-33P-ATP] (specific activity approx. 500 cpm/pmol, concentration as required). The reaction is initiated by the addition of the MgATP mix. After incubation for 40 minutes at room temperature, the reaction is stopped by the addition of 5 μl of a 3% phosphoric acid solution. 10 μl of the reaction is then spotted onto a P30 filtermat and washed three times for 5 minutes in 75 mM phosphoric acid and once in methanol prior to drying and scintillation counting.

[2] = molecular target: SAPK2a(h) (Homo sapiens, UniProt Q16539); conditions: read-out: percent residual activity of SAPK2a(h)
Description: as §1
In a final reaction volume of 25 μl, SAPK2a (h) (5-10 mU) is incubated with 25 mM Tris pH 7.5, 0.02 mM EGTA, 0.33 mg/ml myelin basic protein, 10 mM MgAcetate and [gamma-33P-ATP] (specific activity approx. 500 cpm/pmol, concentration as required). The reaction is initiated by the addition of the MgATP mix. After incubation for 40 minutes at room temperature, the reaction is stopped by the addition of 5 μl of a 3% phosphoric acid solution. 10 μl of the reaction is then spotted onto a P30 filtermat and washed three times for 5 minutes in 75 mM phosphoric acid and once in methanol prior to drying and scintillation counting.

[3] = molecular target: TBK1(h) (Homo sapiens, UniProt Q9UHD2); conditions: read-out: percent residual activity of TBK1(h)
Description: as §1
In a final reaction volume of 25 μl, TBK1 (h) (5-10 mU) is incubated with 8 mM MOPS pH 7.0, 0.2 mM EDTA, 200 μM KRRRALS(p)VASLPGL (SEQ ID NO:214), 10 mM MgAcetate and [gamma-33P-ATP] (specific activity approx. 500 cpm/pmol, concentration as required). The reaction is initiated by the addition of the MgATP mix. After incubation for 40 minutes at room temperature, the reaction is stopped by the addition of 5 μl of a 3% phosphoric acid solution. 10 μl of the reaction is then spotted onto a P30 filtermat and washed three times for 5 minutes in 75 mM phosphoric acid and once in methanol prior to drying and scintillation counting.

[4] = molecular target: GSK3β(h) (Homo sapiens, UniProt P49841); conditions: read-out: percent residual activity of GSK3β(h)
Description: as §1
In a final reaction volume of 25 μl, GSK3β (h) (5-10 mU) is incubated with 8 mM MOPS pH 7.0, 0.2 mM EDTA, 20 μM […](p)EDEEE (SEQ ID NO:221) (phospho GS2 peptide), 10 mM MgAcetate and [gamma-33P-ATP] (specific activity approx. 500 cpm/pmol, concentration as required). The reaction is initiated by the addition of the MgATP mix. After incubation for 40 minutes at room temperature, the reaction is stopped by the addition of 5 μl of a 3% phosphoric acid solution. […]

[5] = molecular target: Pim-1(h) (Homo sapiens, UniProt P11309); conditions: read-out: percent residual activity of Pim-1(h)
Description: as §1
In a final reaction volume of 25 μl, Pim-1 (h) (5-10 mU) is incubated with 8 mM MOPS pH 7.0, 0.2 mM EDTA, 100 μM KKRNRTLTV (SEQ ID NO:219), 10 mM MgAcetate and [gamma-33P-ATP] (specific activity approx. 500 cpm/pmol, concentration as required). The reaction is initiated by the addition of the MgATP mix. After incubation for 40 minutes at room temperature, the reaction is stopped by the addition of 5 μl of a 3% phosphoric acid solution. 10 μl of the reaction is then spotted onto a P30 filtermat and washed three times for 5 minutes in 75 mM phosphoric acid and once in methanol prior to drying and scintillation counting.

[6] = molecular target: FGFR1(h) (Homo sapiens, UniProt P11362); conditions: read-out: percent residual activity of FGFR1(h)
Description: as §1
In a final reaction volume of 25 μl, FGFR1 (h) (5-10 mU) is incubated with 8 mM MOPS pH 7.0, 0.2 mM EDTA, 250 μM KKKSPGEYVNIEFG (SEQ ID NO:207), 10 mM MgAcetate and [y-33P-ATP] (specific activity approx. 500 cpm/pmol, concentration as required). The reaction is initiated by the addition of the MGATP mix. After incubation for 40 minutes at room temperature, the reaction is stopped by the addition of 5 μl of a 3% phosphoric acid solution. 10 μl of the reaction is then spotted onto a P30 filtermat and washed three times for 5 minutes in 75 mM phosphoric acid and once in methanol prior to drying and scintillation counting.

TBK1(h), sequence (Q9UHD2 whole entry): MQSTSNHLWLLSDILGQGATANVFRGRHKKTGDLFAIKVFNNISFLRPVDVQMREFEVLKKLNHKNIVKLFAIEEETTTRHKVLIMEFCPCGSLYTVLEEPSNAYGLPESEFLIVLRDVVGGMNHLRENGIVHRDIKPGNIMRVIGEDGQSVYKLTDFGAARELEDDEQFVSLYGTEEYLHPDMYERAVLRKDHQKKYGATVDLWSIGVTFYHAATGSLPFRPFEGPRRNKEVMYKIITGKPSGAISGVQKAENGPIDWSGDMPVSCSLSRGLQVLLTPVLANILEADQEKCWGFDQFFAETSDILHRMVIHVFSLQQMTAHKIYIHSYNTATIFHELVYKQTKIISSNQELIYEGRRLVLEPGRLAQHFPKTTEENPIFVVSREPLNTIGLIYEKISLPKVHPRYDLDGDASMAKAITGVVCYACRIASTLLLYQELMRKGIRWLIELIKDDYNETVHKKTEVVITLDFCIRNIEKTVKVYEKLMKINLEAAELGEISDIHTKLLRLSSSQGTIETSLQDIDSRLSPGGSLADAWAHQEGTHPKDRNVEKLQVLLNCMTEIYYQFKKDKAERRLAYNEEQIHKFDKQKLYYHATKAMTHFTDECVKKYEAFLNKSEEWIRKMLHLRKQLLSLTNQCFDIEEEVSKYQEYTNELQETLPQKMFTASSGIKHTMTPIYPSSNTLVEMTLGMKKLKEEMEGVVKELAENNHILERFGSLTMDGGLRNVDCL
SAPK2a(h), sequence (Q16539 whole entry): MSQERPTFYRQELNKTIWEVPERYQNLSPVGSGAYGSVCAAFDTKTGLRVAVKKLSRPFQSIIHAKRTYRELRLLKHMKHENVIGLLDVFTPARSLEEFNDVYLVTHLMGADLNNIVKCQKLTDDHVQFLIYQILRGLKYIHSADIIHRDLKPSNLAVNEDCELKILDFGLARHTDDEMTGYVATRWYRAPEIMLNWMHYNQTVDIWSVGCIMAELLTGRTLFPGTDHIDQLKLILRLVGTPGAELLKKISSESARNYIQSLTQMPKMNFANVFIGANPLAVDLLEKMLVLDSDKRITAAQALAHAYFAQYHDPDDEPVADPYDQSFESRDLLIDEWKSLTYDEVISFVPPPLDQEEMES
FGFR1(h), sequence (P11362 22-822): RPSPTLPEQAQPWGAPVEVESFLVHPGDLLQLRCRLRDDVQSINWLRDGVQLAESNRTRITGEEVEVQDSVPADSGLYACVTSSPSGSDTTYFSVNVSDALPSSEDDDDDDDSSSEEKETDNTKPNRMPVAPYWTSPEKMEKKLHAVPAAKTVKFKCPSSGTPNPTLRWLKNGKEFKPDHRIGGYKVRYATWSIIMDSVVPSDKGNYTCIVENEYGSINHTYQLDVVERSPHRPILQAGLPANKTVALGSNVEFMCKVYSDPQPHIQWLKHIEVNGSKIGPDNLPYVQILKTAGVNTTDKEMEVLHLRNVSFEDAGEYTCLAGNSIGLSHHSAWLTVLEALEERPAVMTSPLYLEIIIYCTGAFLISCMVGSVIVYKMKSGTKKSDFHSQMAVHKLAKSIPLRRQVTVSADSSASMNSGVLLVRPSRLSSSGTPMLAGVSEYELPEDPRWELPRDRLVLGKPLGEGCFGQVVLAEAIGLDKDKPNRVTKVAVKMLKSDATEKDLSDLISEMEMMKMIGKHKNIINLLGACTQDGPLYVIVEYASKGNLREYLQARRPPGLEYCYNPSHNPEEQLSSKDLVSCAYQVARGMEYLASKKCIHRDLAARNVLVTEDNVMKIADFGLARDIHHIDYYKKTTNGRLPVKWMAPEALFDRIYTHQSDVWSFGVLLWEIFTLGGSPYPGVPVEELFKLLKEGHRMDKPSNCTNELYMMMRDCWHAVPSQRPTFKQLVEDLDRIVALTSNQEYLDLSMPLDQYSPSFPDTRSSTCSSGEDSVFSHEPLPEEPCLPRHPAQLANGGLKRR
Pim-1(h), sequence (P11309 whole entry): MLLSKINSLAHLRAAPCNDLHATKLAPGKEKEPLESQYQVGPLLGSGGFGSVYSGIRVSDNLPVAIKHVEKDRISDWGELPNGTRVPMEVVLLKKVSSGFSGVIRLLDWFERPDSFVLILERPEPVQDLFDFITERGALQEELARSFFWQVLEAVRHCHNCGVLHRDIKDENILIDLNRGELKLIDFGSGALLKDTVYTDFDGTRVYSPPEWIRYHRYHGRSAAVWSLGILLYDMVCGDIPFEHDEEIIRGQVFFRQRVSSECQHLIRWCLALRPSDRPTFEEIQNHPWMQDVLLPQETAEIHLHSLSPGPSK
JAK2(h), sequence (O60674 whole entry): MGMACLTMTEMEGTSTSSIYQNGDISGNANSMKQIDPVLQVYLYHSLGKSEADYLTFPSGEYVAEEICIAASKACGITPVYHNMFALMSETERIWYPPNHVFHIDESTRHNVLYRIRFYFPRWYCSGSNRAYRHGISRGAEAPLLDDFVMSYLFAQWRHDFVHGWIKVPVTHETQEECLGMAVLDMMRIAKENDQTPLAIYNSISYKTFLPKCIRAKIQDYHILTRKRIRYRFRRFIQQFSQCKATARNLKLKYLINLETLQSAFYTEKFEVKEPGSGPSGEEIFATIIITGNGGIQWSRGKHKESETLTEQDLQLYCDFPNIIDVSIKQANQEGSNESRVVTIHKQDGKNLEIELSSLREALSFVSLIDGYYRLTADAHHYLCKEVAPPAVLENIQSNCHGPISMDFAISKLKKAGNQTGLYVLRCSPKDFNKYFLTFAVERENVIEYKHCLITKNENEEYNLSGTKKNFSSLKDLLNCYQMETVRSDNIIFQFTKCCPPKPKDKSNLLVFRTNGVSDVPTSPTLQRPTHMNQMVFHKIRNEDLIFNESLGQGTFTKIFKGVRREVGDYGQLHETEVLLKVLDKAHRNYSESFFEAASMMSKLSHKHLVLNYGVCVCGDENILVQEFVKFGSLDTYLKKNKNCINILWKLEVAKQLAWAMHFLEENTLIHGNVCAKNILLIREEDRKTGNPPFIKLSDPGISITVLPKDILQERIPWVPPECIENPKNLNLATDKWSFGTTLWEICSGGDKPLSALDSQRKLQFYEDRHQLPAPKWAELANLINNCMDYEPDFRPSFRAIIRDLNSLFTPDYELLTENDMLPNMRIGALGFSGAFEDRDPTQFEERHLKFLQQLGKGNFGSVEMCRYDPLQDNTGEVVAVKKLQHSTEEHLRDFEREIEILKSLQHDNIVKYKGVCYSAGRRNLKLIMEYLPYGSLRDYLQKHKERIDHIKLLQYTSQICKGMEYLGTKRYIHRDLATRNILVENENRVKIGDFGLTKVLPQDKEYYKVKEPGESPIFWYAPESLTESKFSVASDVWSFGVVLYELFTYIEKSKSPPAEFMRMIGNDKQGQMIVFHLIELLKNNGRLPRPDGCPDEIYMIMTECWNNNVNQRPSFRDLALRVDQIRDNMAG
GSK3β(h), sequence (P49841 whole entry): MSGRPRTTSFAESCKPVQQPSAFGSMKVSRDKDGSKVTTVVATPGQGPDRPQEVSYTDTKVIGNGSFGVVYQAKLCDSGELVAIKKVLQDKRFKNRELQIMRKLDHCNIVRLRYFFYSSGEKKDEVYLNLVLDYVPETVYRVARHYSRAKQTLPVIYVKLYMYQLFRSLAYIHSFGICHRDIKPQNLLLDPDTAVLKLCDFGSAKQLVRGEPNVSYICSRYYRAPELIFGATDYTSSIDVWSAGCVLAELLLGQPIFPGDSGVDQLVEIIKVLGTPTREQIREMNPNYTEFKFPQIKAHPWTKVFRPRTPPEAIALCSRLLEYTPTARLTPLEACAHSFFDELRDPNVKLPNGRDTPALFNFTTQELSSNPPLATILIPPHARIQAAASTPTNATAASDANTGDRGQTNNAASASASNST

| remaining activity at 2.5 µM [1] [%] | remaining activity at 2.5 µM [2] [%] | remaining activity at 2.5 µM [3] [%] | remaining activity at 2.5 µM [4] [%] | remaining activity at 2.5 µM [5] [%] | remaining activity at 2.5 µM [6] [%] | Compound |
| --- | --- | --- | --- | --- | --- | --- |
| 105 | 97 | 71 | 135 | 30 | 84 | CN1CCCC1CCNC(=O)c1cn2c3c(c(N4CCC(c5cnccn5)C4)c(F)cc3c1=O)Oc1cc3ccccc3cc1-2 (stereo not drawn) [Compound A-1] |
| 116 | 103 | 114 | 76 | 104 | 118 | CC(=O)N1CCN(c2ccc3c(=O)c(C(=O)NCCN4CCCC4)c4n(C)c5ccccc5n4c3n2)CC1 [Compound B-1] |
